The values that follow are results of earlier work, collected in patent publication EP3272348A1, “PHARMACEUTICAL COMPOSITION COMPRISING IDELALISIB” (LEK Pharmaceuticals d.d., priority 2016, dated 2018).

Read-outs that look alike come from different tables or passages of the source.

Assay in series [1]: not given
This is another data set of the same source.

With `CC[C@H](Nc1ncnc2[nH]cnc12)c1nc2cccc(F)c2c(=O)n1-c1ccccc1` [Crystalline idelalisib, (S)-2-(I-(9H-purin-6-ylamino)propyl)-5-fluoro-3-phenyl-quinazolin-4(3H)-one], the solubility result (pH 1.2) is on record as “soluble” and the solubility result (pH 7) is listed as “not soluble”. Besides, in series [1], the permeability entry was “high permeability”.
